Assay [1] concerns BACE. To be noted: variety of cell types, including primary neurons; cited from earlier work.
Assay [2] deals with BACE. Put plainly: Induction of apoptosis, Western blot of BACE protein levels. Format: cell-based, human. To be noted: H4-APP751 cells. On the procedure:
(§1) H4 human neuroglioma cells expressing APP751 (H4-APP751) and APP-SWE (H4-APPSWE) were grown in DMEM containing 10% FBS, 200 μg/mL G418, 250 μg/mL zeocin, 2 mM L-glutamine, 100 U/ml penicillin, 100 μg/mL streptomycin. For the induction of apoptosis, we used staurosporine or etoposide (Calbiochem). For time-course experiments, cells were seeded at a density of 2×10^6 cells per 100 mm dish and treated with STS (1 μM) or etoposide (100 μg/mL). In order to inhibit caspase activation a sister plate of cells was pretreated with zVAD (100 μM, Calbiochem) for 1 hr before STS treatment. At different time points (0, 3, 6, 9, 12, and 24 hr), the cells were scraped, centrifuged, and then lysed in buffer containing 1% NP40. Western blot analysis was performed as previously described (Tesco et al., 2003). Densitometry analysis was performed on a Macintosh computer using the public domain NIH Image program (developed at the U.S. National Institutes of Health and available on the Internet at rsb.info.nih.gov/nih-image/) or using a Versadoc Imager and QuantityOne software (BioRad).

Assay [3] deals with BACE. Put plainly: Cycloheximide degradation time-course, BACE. The format is cell-based, human. To be noted: H4-APP751 cells, STS+CHX vs CHX (40 μg/ml) only. Here is the method: (§2) H4-APP751 cells were treated with CHX (40 μg/ml) only or STS (1 μM)+CHX during a 30 hr time-course. Lysates from each time point were immunoblotted with the specific antibodies, anti-BACE, anti-TACE, and the anti-APP antibody […].

The next assay relates to Aβ1-total. To be noted: CHO cells, 6 hr treatment; cited from earlier work.
A further assay concerns TACE and APP. The experiment in a line: Cycloheximide degradation time-course, TACE and APP. The format is cell-based, human. To be noted: H4-APP751 cells, STS+CHX vs CHX (40 μg/ml) only. On the procedure: as §2
The next assay relates to BACE mRNA. Put plainly: Northern blot analysis of BACE mRNA. The format is cell-based, human. To be noted: H4-APP751 cells, 6 hr of STS treatment. Here is the method:
Total RNA was extracted using TRIZOL (Invitrogen). Northern blot analysis was performed as previously described (Koh et al., 2001). Human cDNA of BACE was labeled with […] (PerkinElmer, Norwalk Conn.) using random hexanucleotide primers (Prime-a-gene labeling system; Promega Madison Wis.).

The subject of assay [4] is GGA3. The experiment in a line: GGA3 cleavage during apoptosis in H4 cells, Western blot with anti-GGA3 antibody. The format is cell-based, human. To be noted: for cleavage of full length GGA3: H4 cells, STS time course. On the procedure:
H4 cells were treated with staurosporine (STS) during time course experiments.
as §1
Background: Immunoblotting shows a protein as a band on a membrane.

The next assay relates to caspase 3. The experiment in a line: Caspase 3 activation, Western blot with anti-caspase 3 active fragment antibody. The format is cell-based, human. To be noted: H4-APP751 cells, STS treatment. The text has this:
(§3) Gervais and colleagues (Gervais et al., 1999) proposed that caspase-mediated cleavage of APP at APPD720 was responsible for increased Aβ generation associated with apoptosis. […] The Aβ ELISA measured Aβ1-total using biotinylated 3D6, which specifically recognizes the aspartate in position 1 of Aβ, as a reporter antibody. […] Here, we investigated whether apoptosis-mediated increases in Aβ levels may be due to enhanced cleavage of APP by BACE, the protease responsible for β-secretase cleavage of APP (Vassar et al., 1999). For this purpose, we tested whether apoptosis/caspase activation leads to increased levels of APP-C99, the C-terminal fragment generated by β-secretase cleavage of APP. […]
(§4) H4 human neuroglioma cells expressing APP751 (H4-APP751) and APP-SWE (H4-APPSWE) were grown in DMEM containing 10% FBS, 200 μg/mL G418, 250 μg/mL zeocin, 2 mM L-glutamine, 100 U/ml penicillin, 100 μg/mL streptomycin. […] Densitometry analysis was performed on a Macintosh computer using the public domain NIH Image program (developed at the U.S. National Institutes of Health and available on the Internet at rsb.info.nih.gov/nih-image/) or using a Versadoc Imager and QuantityOne software (BioRad).

The subject of assay [5] is GGA3. The experiment in a line: Full length GGA3 in primary cortical neurons treated with STS, Western blot. Format: cell-based. To be noted: primary cortical neurons (PCN), STS for 12 hr. On the procedure:
FIG. 5b: rat brain samples from the experiment described in FIG. 7. […] FIG. 5c: H4 and primary cortical neurons (PCN) were treated with STS for 12 hr.

The next assay has as its system APP-C99. Put plainly: APP-C99 levels during apoptosis, Western blot with WO2 antibody. To be noted: H4-APP751 cells, apoptosis induced by STS. Format: cell-based, human.
From the text: as §3, §4

The subject of assay [6] is BACE. To be noted: caspase inhibition; cited from earlier work.
For assay [7], the system named is ischemic and excitotoxic neuronal damage. To be noted: intracerebroventricular injection before ischemia and immediately after reperfusion; cited from earlier work.
The test system of assay [8] is GGA3. The experiment in a line: In vitro translation and recombinant caspase 3 cleavage assay. To be noted: recombinant caspase 3. The format is biochemical, human. On the procedure: The HA-GGA3 pcDNA4 plasmid was a generous gift from Dr. Waguri. GGA3 was in vitro translated (IVT) in the presence of [^35S]-labeled methionine using TNT Quick Coupled Transcription/Translation Systems as indicated by the manufacturer (Promega, Madison Wis.). 5 μL of IVT reaction were incubated with or without 200 ng of recombinant caspase 3 (Pharmingen, San Diego, Calif.) in caspase reaction buffer (sucrose 20%, NaCl 100 mM, HEPES (pH 7.4) 20 mM, CHAPS 0.1%, DTT 10 mM, EDTA 1 mM) at 37° for 2 hr. The reactions were separated by SDS-page (4-12% Bis-tricine gel with MES running buffer, Invitrogen Carlsbad, Calif.). The gel was fixed, dried and exposed to a phosphorimager screen. The images were acquired with a FX phosphorimager (Bio-Rad, Hercules Calif.). GGA3 in vitro translation was also performed in the presence of cold methionine. Then, 5 μL of IVT reaction were incubated with or without 200 ng of recombinant caspase 3 overnight at 37°. The reactions were separated by SDS-page. In order to better separate the bands generated by caspase 3 cleavage we used 12% Bis-tricine gel and MOPS running buffer (Invitrogen). Then, the proteins were transferred to PVDF membrane and WB analysis with anti-GGA3 antibody was performed.

A further assay deals with Aβ40. Put plainly: Secreted Aβ40 in conditioned media, sandwich ELISA. Format: cell-based, human. To be noted: H4-APP751 cells expressing GGA3DN. On the procedure:
Secreted Aβ40 was measured in the conditioned media using an Aβ40-specific sandwich ELISA (BioSource International, Camarillo, Calif.). Aβ concentration was normalized against the concentration of protein in the cell lysates.
H4 cells stably expressing wild-type APP-751 or APP containing the Swedish FAD mutation (APPSwe) were transfected with 200 nM siGGA3 (ID #36847, Ambion, Austin Tex.) or a 19 bp scrambled sequence was used as negative control for siRNA (Silencer Negative control #1 siRNA, Ambion) using oligofectamine following manufacturer's instructions (Invitrogen). 72 hr later, GGA3 levels were determined by WB analysis with anti-GGA3 antibody (Transduction Laboratories). At the same time point, a sister plate of the same cells was co-transfected with myc-tagged BACE plasmid and siGGA3 or siNeg. After 48 hr the media was replaced. Cells and media were collected after 72 hr following the co-transfection.

For assay [9], the system named is BACE. The experiment in a line: Co-transfection of GGA3DN with myc-tagged BACE in H4-APP751 cells, BACE levels. Format: cell-based, human. The text has this: To address this possibility we engineered a HA-tagged GGA3 N-terminal fragment 1-313 mimicking the N-terminal caspase-derived fragment generated by cleavage at D313 (GGA3DN). […] During apoptosis, however, caspase-mediated cleavage of GGA3 results not only in the production of GGA3DN but also the degradation of GGA3.

Results on nine molecules are retold here after patent US8273543B2, “Regulation of BACE degradation” (The General Hospital Corporation, priority 2006, dated 2012).

Entries after “also recorded” stand apart in the source; their conditions may differ. Peptide text beside a SMILES is read from it. * marks the point of attachment. Cbz = O=C(OCc1ccccc1)*; CH2F = FC*

In the case of `Cl.N` [NH4Cl], the “accumulation of endogenous and ectopically expressed BACE” value in the assay on BACE [1] was “lead to accumulation”.
Regarding `COc1cc([C@@H]2c3cc4c(cc3[C@@H](O[C@@H]3O[C@@H]5CO[C@@H](C)O[C@H]5[C@H](O)[C@H]3O)[C@H]3COC(=O)[C@H]23)OCO4)cc(OC)c1O` [etoposide], the BACE protein levels result in the assay with BACE [2] (apoptosis induced by etoposide) is “increased BACE protein levels”.
Regarding `CN[C@@H]1C[C@H]2O[C@@](C)([C@@H]1OC)n1c3ccccc3c3c4c(c5c6ccccc6n2c5c31)C(=O)NC4` [STS, staurosporine], the “degradation of BACE” value in the assay with BACE [3] is “degradation of BACE was decreased”. Moreover, the “Aβ1-total production compared to untreated cells” value in the assay with Aβ1-total is listed as “significantly increased”. Besides, in the assay on TACE and APP, the “degradation of TACE and APP” value is on record as “unchanged”. In the assay with BACE mRNA, the “BACE mRNA levels” value is listed as “virtually undetectable”. Also, the “cleavage of full length GGA3” value in the assay with GGA3 [4] is given as “cleaved into two major fragments”; in the assay on GGA3 [4] (listed as staurosporine), “cleaved in two major fragments”. Moreover, the “earliest time of caspase 3 activation” value with caspase 3 turned out to be 6 h. In addition, the “increase in BACE protein levels” value in the assay on BACE [2] (12 hr of STS treatment) is about 6 fold; in the assay on BACE [2] (24 hr of STS treatment), about 9 fold. The “full length GGA3” value with GGA3 [5] was “decrease in full length GGA3”. The “levels of APP-C99” value in the assay on APP-C99 was “increased levels of C99”.
As to `CC(NC(=O)C(NC(=O)OCc1ccccc1)C(C)C)C(=O)NC(CC(=O)O)C(=O)CF` (stereo not drawn) [zVAD] (Cbz-Val-Ala-Asp-CH2F; configuration not given here), the “cleavage of GGA3 during apoptosis” value in the assay on GGA3 [4] (apoptotic H4 cells, caspase inhibition) is “inhibited; also recorded: prevented”. For the same molecule, in the assay on BACE [2] (caspase inhibition), the “BACE accumulation during STS or etoposide treatment” value is “prevented BACE accumulation”. Moreover, in the assay with BACE [6], the “increase in Aβ production during apoptosis” value was “prevent” and the “stabilization of BACE during apoptosis” value is reported as “prevent the stabilization of BACE”.
As to `CCN(CC)CCCC(C)Nc1ccnc2cc(Cl)ccc12` (centres unmarked) [chloroquine], the “accumulation of endogenous and ectopically expressed BACE” value with BACE [1] was “lead to accumulation”.
As for `COC(=O)C[C@H](NC(=O)[C@H](C)NC(=O)[C@@H](NC(=O)OCc1ccccc1)C(C)C)C(=O)CF` [z-VAD.FMK] (Cbz-Val-Ala-Asp(OMe)-CH2F), the “ischemic and excitotoxic neuronal damage” value in assay [7] is recorded as “significantly reduces”.
For `COC(=O)CC[C@H](NC(=O)[C@H](CC(=O)OC)NC(=O)OCc1ccccc1)C(=O)N[C@H](C(=O)N[C@@H](CC(=O)OC)C(=O)CF)C(C)C` [zDEVD.FMK], the “ischemic and excitotoxic neuronal damage” value in [7] is “significantly reduces”.

B1: recombinant caspase 3: Recombinant caspase 3 purchased from Pharmingen (protein)
chain: SGISLDNSYKMDYPEMGLCIIINNKNFHKSTGMTSRSGTDVDAANLRETFRNLKYEVRNKNDLTREEIVELMRDVSKEDHSKRSSFVCVLLSHGEEGIIFGTNGPVDLKKITNFFRGDRCRSLTGKPKLFIIQACRGTELDCGIETDSGVDDDMACHKIPVEADFLYAYSTAPGYYSWRNSKDGSWFIQSLCAMLKQYADKLEFMHILTRVNRKVATEFESFSFDATFHAKKQIPCIVSMLTKELYFYH
For B1, in the assay with GGA3 [8], the “cleavage of in vitro translated GGA3 (cold methionine), Western blot” value is given as “three major fragments”.

B2: GGA3DN: HA-tagged GGA3 N-terminal fragment 1-313 mimicking the N-terminal caspase-derived fragment generated by cleavage at D313 (protein, UniProt Q9NZ52 1-313, looked up, fragment)
chain: MAEAEGESLESWLNKATNPSNRQEDWEYIIGFCDQINKELEGPQIAVRLLAHKIQSPQEWEALQALTVLEACMKNCGRRFHNEVGKFRFLNELIKVVSPKYLGDRVSEKVKTKVIELLYSWTMALPEEAKIKDAYHMLKRQGIVQSDPPIPVDRTLIPSPPPRPKNPVFDDEEKSKLLAKLLKSKNPDDLQEANKLIKSMVKEDEARIQKVTKRLHTLEEVNNNVRLLSEMLLHYSQEDSSDGDRELMKELFDQCENKRRTLFKLASETEDNDNSLGDILQASDNLSRVINSYKTIIEGQVINGEVATLTLPD
modifications: HA tag
notes: HA-tagged GGA3 N-terminal fragment 1-313 mimicking the N-terminal caspase-derived fragment generated by cleavage at D313
In the case of B2, the “levels of secreted Aβ40” value with Aβ40 is “the increase was not statistically significant”. The “BACE levels compared to vector alone or GGA3” value in the assay on BACE [9] is “BACE levels were increased”.
